We go through 40 molecules from ChEMBL document CHEMBL1148677, “Identification of small-molecule inhibitors of the Abeta-ABAD interaction” (Bioorg Med Chem Lett, 2006).

Activity calls are given as the source filed them. The rule behind the calls is not given here.

One data set is filed under the species Homo sapiens. Description: Inhibition of beta amyloid-ABAD interaction by ELISA at 1 mM.
A short description of data set [1]: Inhibition of beta amyloid-ABAD interaction by ELISA. Further details: species or system Homo sapiens.
Data set [2] can be described thus: Partition coefficient, log P of the compound. The conditions noted are these: octanol/water. In kind it is physicochemical.

On to `COc1ccc2nc(NC(=O)NOc3ccccc3)sc2c1`, for which, in the data set filed under Homo sapiens, the outcome was Active. In data set [1], this molecule displayed an IC50 of 316 µM.

As to `COC(=O)c1cc(C(=O)O)ccc1NC(=O)Nc1nc2ccc(Cl)cc2s1`, the outcome in the data set filed under Homo sapiens was Active. This molecule also yielded an IC50 in data set [1] of 22.7 µM.

With `Cc1ccc2c(c1)sc(-c1ccc(N(C)C)cc1)[n+]2C`, the IC50 in data set [1] turned out to be 230 µM.

Turning to `O=C(Nc1nc2ccc(O)cc2s1)c1cccc(O)c1O`, the inhibition in the data set filed under Homo sapiens is under 50%.

In the data set listed under Homo sapiens, `COc1ccc2nc(NC(=O)c3ccccc3)sc2c1` registered an inhibition of under 50%.

In the case of `O=C(Nc1cccnc1)Nc1nc2ccc(F)cc2s1`, the result in the data set filed under Homo sapiens was Active. Also, it took 282 µM to reach half-maximal inhibition in data set [1] (IC50).

For the molecule `O=C(Nc1nc2ccc(F)cc2s1)c1cccc(O)c1O`, the inhibition in the data set listed under Homo sapiens is under 50%.

Turning to `O=C(Nc1nc2ccc(F)cc2s1)Nc1ccccc1O`, the result in the data set filed under Homo sapiens was Active. In data set [1], this molecule had an IC50 of 207 µM.

In the data set listed under Homo sapiens, `COc1cccc(C(=O)Nc2nc3ccc(F)cc3s2)c1OC` showed an inhibition of under 50%.

As for `O=C(Nc1nc2ccc(Cl)cc2s1)c1cccc(O)c1O`, the inhibition in the data set listed under Homo sapiens was under 50%.

`CCOc1ccc2nc(NC(=O)c3cccc(OC)c3OC)sc2c1`: the inhibition in the data set filed under Homo sapiens is under 50%.

For `O=C(Nc1cccnc1)Nc1nc2ccc(Cl)cc2s1`, the result in the data set filed under Homo sapiens was Active. Half-maximal inhibition in data set [1] (IC50) required 247 µM.

In the case of `COC(=O)c1ccc(NC(=O)Nc2nc3ccc(F)cc3s2)c(I)c1`, the outcome in the data set filed under Homo sapiens was Active. For the same molecule, in data set [1], the IC50 turned out to be 286 µM.

`CCOc1ccc2nc(NC(=O)c3ccccc3)sc2c1` had an inhibition in the data set filed under Homo sapiens of under 50%.

On to `COC(=O)c1cc(NC(=O)Nc2nc3ccc(OC(F)(F)F)cc3s2)ccc1O`, for which the outcome in the data set filed under Homo sapiens was Active. Besides, half-maximal inhibition in data set [1] (IC50) was put at 244 µM.

For `COc1ccc2nc(NC(=O)N3CCN(c4ccc5c(c4)OCO5)CC3)sc2c1`, the IC50 in data set [1] is 163 µM.

In data set [1], `COc1ccc2nc(NC(=S)Nc3ccccc3)sc2c1` registered an IC50 of 190 µM.

On to `O=C(Nc1ccc(O)cc1)Nc1nc2ccc(OC(F)(F)F)cc2s1`, for which, in the data set listed under Homo sapiens, the result was Active. The same molecule displayed an IC50 in data set [1] of 47.6 µM.

In the case of `COc1ccc2nc(NC(=O)Nc3ccc(O)c(C(=O)O)c3)sc2c1`, the result in the data set listed under Homo sapiens was Active. In data set [1], the IC50 stood at 29.5 µM.

In turn, `COc1ccc2nc(NC(=O)Nc3ccccc3)sc2c1` [FRENTIZOLE] had an IC50 in data set [1] of 200 µM.

Take `COC(=O)c1cc(NC(=S)Nc2nc3ccc(OC)cc3s2)ccc1O`: it took 15.6 µM to reach half-maximal inhibition in data set [1] (IC50).

With `O=C(Nc1cc(O)c2cc(S(=O)(=O)O)ccc2c1)Nc1nc2ccc(Cl)cc2s1`, the result in the data set listed under Homo sapiens was Active. The molecule also showed an IC50 in data set [1] of 267 µM.

As for `COC(=O)c1cc(NC(=O)Nc2nc3ccc(OC)cc3s2)ccc1O`, the result in the data set filed under Homo sapiens was Active. Further, 26.3 µM corresponded to half-maximal inhibition in data set [1] (IC50).

Turning to `O=C(Nc1ccc(C(=O)O)c(O)c1)Nc1nc2ccc(Cl)cc2s1`, the result in the data set filed under Homo sapiens was Active. In data set [1], this molecule showed an IC50 of 267 µM.

Regarding `COc1ccc2nc(NC(=O)NCc3ccc4c(c3)OCO4)sc2c1`, the outcome in the data set listed under Homo sapiens was Active. This molecule also yielded an IC50 in data set [1] of 26.6 µM.

As for `O=C(Nc1ccc(O)c(C(=O)O)c1)Nc1nc2ccc(F)cc2s1`, in the data set listed under Homo sapiens, the result was Active. In data set [1], this molecule returned an IC50 of 261 µM.

Take `O=C(Nc1nc2ccc(F)cc2s1)c1ccccc1`: the inhibition in the data set listed under Homo sapiens is under 50%.

For `COC(=O)c1cc(NC(=O)Nc2nc3ccc(Cl)cc3s2)ccc1O`, the logP in data set [2] was determined as 1.34. In addition, in the data set listed under Homo sapiens, the outcome was Active. Besides, half-maximal inhibition in data set [1] (IC50) required 6.46 µM.

In data set [2], `COC(=O)c1cc(NC(=O)Nc2nc3ccc(F)cc3s2)ccc1O` gave a logP of 1.15. Also, the result in the data set listed under Homo sapiens was Active. The same molecule returned an IC50 in data set [1] of 6.56 µM.

In the case of `O=C(Nc1nc2ccc(OC(F)(F)F)cc2s1)Nc1ccc(O)cc1O`, the outcome in the data set listed under Homo sapiens was Active. The molecule also displayed an IC50 in data set [1] of 53.8 µM.

Take `COc1ccc2nc(NC(=O)Nc3cccnc3)sc2c1`: the result in the data set listed under Homo sapiens was Active. The IC50 in data set [1] is 257 µM.

In the case of `O=C(Nc1cc(O)c2cc(S(=O)(=O)O)ccc2c1)Nc1nc2ccc(OC(F)(F)F)cc2s1`, the result in the data set filed under Homo sapiens was Active. Inhibition in data set [1] was half-maximal at 29 µM (IC50).

Regarding `O=C(Nc1nc2ccc(Cl)cc2s1)c1ccccc1`, the inhibition in the data set listed under Homo sapiens was under 50%.

Regarding `O=C(Nc1ccc(O)c(C(=O)O)c1)Nc1nc2ccc(OC(F)(F)F)cc2s1`, in the data set listed under Homo sapiens, the result was Active. In data set [1], the IC50 stood at 185 µM.

`COc1ccc2nc(NC(=O)Nc3ccc(N4CCOCC4)cc3)sc2c1`: in the data set listed under Homo sapiens, the outcome was Active. This molecule also yielded an IC50 in data set [1] of 250 µM.

As for `O=C(Nc1cccnc1)Nc1nc2ccc(OC(F)(F)F)cc2s1`, the outcome in the data set listed under Homo sapiens was Active. In data set [1], this molecule registered an IC50 of 244 µM.

`CCOc1ccc2nc(NC(=O)Nc3ccc(O)c(C(=O)OC)c3)sc2c1`: in the data set listed under Homo sapiens, the outcome was Active. The molecule further displayed an IC50 in data set [1] of 20.6 µM.

With `COc1ccc2nc(NC(=O)c3cccc(OC)c3OC)sc2c1`, the inhibition in the data set filed under Homo sapiens is under 50%.

For `O=C(Nc1nc2ccc(Cl)cc2s1)Nc1ccc(O)cc1O`, the result in the data set listed under Homo sapiens was Active. Further, half-maximal inhibition in data set [1] (IC50) required 23 µM.

In the case of `COc1cccc(C(=O)Nc2nc3ccc(Cl)cc3s2)c1OC`, in the data set filed under Homo sapiens, the inhibition was under 50%.
